Test results published in ChEMBL document CHEMBL4831551, “Novel Heteroaromatic Carboxamides as Plasma Kallikrein Inhibitors for Treating Diabetic Complications, Ocular Diseases, and Edema-Associated Diseases” (ACS Med Chem Lett, 2021).

Molecular target: Plasma kallikrein (Homo sapiens, UniProt P03952)
Assay: Inhibition of kallikrein (unknown origin) using H-Pro-Phe-Arg-AMC as substrate incubated for 1 hr by fluorescence based analysis

Chain of Plasma kallikrein (P03952 20-390 limits assumed): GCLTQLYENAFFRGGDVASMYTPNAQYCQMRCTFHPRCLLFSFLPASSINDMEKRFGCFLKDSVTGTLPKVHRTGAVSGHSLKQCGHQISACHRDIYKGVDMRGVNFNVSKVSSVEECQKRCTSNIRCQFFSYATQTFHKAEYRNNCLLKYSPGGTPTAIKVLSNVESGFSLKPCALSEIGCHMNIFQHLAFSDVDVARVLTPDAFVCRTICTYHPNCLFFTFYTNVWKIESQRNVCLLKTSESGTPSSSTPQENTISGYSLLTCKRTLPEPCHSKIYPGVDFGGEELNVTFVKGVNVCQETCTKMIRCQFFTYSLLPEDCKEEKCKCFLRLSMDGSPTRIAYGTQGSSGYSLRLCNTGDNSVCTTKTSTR
Chain of Plasma kallikrein (P03952 391-638 limits assumed): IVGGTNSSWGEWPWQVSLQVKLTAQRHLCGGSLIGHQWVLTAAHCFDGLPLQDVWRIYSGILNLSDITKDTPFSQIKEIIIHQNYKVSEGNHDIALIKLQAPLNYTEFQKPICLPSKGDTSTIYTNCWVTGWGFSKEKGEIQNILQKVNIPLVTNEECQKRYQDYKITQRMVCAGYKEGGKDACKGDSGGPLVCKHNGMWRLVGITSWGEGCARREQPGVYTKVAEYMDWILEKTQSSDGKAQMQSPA

| Compound | IC50 [nM] |
| --- | --- |
| Cc1[nH]nc2c1CC[C@H]2NC(=O)c1cn(Cc2ccc(N3CC4C(C3)C4(F)F)nc2C(F)F)cn1 (stereo partly specified) | 0.6 |
| Cc1[nH]nc2c1CC[C@H]2NC(=O)c1cnn(Cc2ccc(N3CC4CC4C3)nc2C(F)F)c1 (stereo partly specified) | 0.8 |
| Cc1[nH]nc2c1CC[C@H]2NC(=O)c1cnn(Cc2ccc(N3CC4C(C3)C4(F)F)nc2C(F)F)c1 (stereo partly specified) | 0.8 |

The next lines start with the values.

| IC50 [nM] | Compound |
| --- | --- |
| 0.7 | Cc1[nH]nc2c1CC[C@H]2NC(=O)c1cn(Cc2ccc(N3CC4CC4C3)nc2C(F)F)cn1 (stereo partly specified) |
| 0.5 | Cc1[nH]nc2c1CC[C@H]2NC(=O)c1cn(Cc2ccc(N3CC4(CC4)C3)nc2C(F)F)nn1 |
| 0.5 | Cc1[nH]nc2c1CC[C@H]2NC(=O)c1cn(Cc2ccc(N3CC4(CC4)C3)nc2C(F)F)cn1 |
